Test results reported in ChEMBL document CHEMBL1201862, “PubChem BioAssay data set” (2004).
Active and inactive are the calls of the source.

Tests used:
[1] = molecular target: T1, Alkaline phosphatase, tissue-nonspecific isozyme (Homo sapiens, UniProt P05186); assay: activation of tissue-nonspecific alkaline phosphatase – biochemical, TNAP isozyme, mouse IAP uHTS hits, selectivity assay for mouse IAP activator project, dose response (AID 488880); type: functional
T1 sequence (P05186 whole entry): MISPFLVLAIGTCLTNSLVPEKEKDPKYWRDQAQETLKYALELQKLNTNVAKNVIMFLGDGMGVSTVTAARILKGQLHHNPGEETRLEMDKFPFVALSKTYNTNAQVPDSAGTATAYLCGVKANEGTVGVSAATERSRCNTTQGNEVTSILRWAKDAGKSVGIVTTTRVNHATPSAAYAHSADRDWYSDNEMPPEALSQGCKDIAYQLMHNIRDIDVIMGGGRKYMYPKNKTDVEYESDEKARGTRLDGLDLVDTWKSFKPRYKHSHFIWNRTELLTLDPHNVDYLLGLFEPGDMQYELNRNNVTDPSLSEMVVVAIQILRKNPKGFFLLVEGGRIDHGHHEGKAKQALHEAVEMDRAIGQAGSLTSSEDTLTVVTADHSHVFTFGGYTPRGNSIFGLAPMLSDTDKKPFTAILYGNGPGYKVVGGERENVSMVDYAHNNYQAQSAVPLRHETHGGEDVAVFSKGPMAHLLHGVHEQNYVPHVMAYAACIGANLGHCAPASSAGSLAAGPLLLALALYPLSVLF

[2] = molecular target: T2, RNA-binding protein pos-1 (Caenorhabditis elegans, UniProt G5EF15); assay: disruptors of C. elegans POS-1 RNA interaction – biochemical, fluorescence polarization, dose response (AID 1964);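 also: purified POS-1 fused to maltose binding protein made in E. coli; potency of compounds blocking POS-1 binding to fluorescent RNA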
T2 sequence (G5EF15 whole entry): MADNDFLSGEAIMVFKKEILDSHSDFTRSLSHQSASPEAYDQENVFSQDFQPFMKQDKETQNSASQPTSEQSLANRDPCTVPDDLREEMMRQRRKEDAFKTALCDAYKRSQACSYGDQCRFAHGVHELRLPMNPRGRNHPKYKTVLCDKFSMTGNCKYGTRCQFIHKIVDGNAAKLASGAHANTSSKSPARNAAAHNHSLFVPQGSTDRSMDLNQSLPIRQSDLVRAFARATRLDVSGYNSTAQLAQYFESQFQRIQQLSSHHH

[3] = molecular target: Intestinal-type alkaline phosphatase (Mus musculus, UniProt P24822); assay: mouse intestinal alkaline phosphatase activators, dose response, biochemical, luminescence, uHTS hits (AID 488783); type: functional
[4] = molecular target: T3, Zinc finger protein mex-5 (Caenorhabditis elegans, UniProt Q9XUB2); assay: potency of MEX-5 RNA-binding blockers – biochemical, C. elegans, fluorescence polarization, dose response (AID 1960)
T3 sequence (Q9XUB2 whole entry): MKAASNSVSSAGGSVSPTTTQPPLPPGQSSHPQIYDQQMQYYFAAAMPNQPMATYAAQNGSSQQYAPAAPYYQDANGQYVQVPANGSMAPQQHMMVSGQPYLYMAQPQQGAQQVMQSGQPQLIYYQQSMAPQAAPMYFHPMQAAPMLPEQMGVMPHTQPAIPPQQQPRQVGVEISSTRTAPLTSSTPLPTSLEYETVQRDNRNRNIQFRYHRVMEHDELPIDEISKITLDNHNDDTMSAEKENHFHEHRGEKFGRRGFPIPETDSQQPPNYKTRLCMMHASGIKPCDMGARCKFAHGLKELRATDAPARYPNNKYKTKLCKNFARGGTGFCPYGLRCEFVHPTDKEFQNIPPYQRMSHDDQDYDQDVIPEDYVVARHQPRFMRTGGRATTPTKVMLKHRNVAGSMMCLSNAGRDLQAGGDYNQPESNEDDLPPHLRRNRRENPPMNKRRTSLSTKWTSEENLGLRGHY

[5] = molecular target: T4, Leucine aminopeptidase (Plasmodium falciparum 3D7, UniProt Q8IL11); assay: P. falciparum M17LAP inhibitors, primary screen, biochemical, fluorogenic H-Leu-NHMec substrate, 1536-well (AID 1619); type: functional
T4 sequence (Q8IL11 whole entry): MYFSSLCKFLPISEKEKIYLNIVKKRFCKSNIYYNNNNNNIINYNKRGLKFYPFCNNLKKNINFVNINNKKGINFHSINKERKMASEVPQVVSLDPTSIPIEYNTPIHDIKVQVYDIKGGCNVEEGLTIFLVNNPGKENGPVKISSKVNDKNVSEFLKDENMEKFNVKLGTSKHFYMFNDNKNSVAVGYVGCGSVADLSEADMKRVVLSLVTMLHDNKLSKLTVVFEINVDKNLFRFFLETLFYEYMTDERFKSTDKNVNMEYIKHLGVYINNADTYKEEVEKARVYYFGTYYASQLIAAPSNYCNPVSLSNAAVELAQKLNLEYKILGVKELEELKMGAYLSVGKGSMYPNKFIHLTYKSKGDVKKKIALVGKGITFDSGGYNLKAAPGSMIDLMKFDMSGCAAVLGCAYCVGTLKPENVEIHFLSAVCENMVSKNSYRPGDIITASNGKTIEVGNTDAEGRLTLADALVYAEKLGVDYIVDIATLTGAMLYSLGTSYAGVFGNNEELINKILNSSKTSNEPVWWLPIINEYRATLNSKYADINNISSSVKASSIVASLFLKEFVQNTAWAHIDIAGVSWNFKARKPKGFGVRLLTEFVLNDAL

[6] = molecular target: Intestinal-type alkaline phosphatase (Homo sapiens, UniProt P09923); assay: activation of human intestinal alkaline phosphatase – biochemical, dose response (AID 488873); type: functional
[7] = molecular target: T5, Glutathione-S-transferase (Schistosoma japonicum, UniProt Q26513); assay: GST-antibody interaction or FRET quenching – biochemical, TR-FRET, artefact control for Vif-APOBEC3G degradation inhibitor project, dose response (AID 1117362); type: functional
T5 sequence (Q26513 whole entry): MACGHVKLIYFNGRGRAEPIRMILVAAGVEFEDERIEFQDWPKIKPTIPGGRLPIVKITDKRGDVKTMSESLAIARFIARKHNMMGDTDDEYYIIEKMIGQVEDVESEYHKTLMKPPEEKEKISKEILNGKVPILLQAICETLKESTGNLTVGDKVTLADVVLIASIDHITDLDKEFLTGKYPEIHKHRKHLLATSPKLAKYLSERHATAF

[8] = molecular target: T6, Voltage-gated N-type calcium channel alpha-1B subunit/Amyloid beta A4 precursor protein-binding family A member 1 (Homo sapiens, UniProt Q00975+Q02410); assay: disruptors of Mint-PDZ/N-type channel peptide interaction – biochemical, HTRF, SAR follow-up (AID 2489); type: functional
T6 sequence (Q00975 whole entry): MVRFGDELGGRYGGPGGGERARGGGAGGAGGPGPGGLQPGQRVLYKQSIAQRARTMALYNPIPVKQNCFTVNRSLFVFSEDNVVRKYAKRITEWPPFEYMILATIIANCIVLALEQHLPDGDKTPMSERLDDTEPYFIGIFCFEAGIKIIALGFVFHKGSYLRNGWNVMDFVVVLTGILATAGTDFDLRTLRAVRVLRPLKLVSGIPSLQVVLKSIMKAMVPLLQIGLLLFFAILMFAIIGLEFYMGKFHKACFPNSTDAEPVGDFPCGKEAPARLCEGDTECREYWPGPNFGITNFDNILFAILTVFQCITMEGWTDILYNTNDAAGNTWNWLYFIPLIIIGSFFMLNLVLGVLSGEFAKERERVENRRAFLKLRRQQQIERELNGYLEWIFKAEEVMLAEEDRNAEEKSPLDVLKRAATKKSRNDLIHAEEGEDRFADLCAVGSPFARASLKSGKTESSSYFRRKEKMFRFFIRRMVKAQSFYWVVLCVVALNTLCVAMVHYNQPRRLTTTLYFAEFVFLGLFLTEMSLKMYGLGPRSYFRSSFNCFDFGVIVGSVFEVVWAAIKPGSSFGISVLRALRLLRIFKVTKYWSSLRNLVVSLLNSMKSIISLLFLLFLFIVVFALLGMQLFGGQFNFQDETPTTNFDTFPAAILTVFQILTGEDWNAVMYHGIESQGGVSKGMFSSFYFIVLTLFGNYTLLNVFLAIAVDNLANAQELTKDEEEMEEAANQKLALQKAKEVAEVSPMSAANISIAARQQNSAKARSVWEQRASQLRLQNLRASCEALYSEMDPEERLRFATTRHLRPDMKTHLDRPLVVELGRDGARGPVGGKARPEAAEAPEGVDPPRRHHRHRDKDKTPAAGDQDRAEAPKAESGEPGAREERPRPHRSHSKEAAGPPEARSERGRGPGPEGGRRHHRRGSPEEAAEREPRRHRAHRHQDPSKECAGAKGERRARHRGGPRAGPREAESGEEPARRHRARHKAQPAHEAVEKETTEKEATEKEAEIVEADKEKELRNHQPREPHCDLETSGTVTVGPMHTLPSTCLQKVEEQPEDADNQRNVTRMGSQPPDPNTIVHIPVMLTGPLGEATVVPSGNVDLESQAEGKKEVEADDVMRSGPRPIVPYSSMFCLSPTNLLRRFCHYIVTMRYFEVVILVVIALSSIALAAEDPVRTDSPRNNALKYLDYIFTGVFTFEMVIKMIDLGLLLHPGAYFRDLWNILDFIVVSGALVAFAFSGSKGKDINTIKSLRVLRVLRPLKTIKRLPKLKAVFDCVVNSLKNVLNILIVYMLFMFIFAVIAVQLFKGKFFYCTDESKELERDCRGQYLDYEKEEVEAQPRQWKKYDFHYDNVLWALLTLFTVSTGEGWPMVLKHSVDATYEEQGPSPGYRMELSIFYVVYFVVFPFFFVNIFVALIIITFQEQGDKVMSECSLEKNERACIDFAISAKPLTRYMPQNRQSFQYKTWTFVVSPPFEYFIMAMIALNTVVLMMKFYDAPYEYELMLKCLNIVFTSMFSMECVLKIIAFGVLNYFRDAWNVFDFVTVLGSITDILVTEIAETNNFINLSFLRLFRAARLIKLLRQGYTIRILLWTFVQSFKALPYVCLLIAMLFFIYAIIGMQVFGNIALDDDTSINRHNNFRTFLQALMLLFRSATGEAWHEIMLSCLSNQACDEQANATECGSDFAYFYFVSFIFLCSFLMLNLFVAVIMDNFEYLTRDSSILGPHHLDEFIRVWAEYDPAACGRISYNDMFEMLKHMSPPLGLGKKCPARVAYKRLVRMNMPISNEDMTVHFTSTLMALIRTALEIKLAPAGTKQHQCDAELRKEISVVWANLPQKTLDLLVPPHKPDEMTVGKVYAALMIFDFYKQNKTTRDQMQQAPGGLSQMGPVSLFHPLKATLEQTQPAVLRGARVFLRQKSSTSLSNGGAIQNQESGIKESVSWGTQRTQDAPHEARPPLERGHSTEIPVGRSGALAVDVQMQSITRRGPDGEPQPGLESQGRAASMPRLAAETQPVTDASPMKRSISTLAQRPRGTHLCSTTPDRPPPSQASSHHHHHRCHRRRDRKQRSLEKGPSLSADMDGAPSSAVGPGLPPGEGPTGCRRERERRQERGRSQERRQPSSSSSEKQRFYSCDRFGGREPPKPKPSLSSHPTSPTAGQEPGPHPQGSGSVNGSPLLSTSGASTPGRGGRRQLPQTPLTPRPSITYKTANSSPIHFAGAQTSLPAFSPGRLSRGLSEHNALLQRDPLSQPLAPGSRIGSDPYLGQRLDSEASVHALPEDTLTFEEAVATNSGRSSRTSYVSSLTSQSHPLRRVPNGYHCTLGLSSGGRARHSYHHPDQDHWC
T6 sequence (Q02410 whole entry): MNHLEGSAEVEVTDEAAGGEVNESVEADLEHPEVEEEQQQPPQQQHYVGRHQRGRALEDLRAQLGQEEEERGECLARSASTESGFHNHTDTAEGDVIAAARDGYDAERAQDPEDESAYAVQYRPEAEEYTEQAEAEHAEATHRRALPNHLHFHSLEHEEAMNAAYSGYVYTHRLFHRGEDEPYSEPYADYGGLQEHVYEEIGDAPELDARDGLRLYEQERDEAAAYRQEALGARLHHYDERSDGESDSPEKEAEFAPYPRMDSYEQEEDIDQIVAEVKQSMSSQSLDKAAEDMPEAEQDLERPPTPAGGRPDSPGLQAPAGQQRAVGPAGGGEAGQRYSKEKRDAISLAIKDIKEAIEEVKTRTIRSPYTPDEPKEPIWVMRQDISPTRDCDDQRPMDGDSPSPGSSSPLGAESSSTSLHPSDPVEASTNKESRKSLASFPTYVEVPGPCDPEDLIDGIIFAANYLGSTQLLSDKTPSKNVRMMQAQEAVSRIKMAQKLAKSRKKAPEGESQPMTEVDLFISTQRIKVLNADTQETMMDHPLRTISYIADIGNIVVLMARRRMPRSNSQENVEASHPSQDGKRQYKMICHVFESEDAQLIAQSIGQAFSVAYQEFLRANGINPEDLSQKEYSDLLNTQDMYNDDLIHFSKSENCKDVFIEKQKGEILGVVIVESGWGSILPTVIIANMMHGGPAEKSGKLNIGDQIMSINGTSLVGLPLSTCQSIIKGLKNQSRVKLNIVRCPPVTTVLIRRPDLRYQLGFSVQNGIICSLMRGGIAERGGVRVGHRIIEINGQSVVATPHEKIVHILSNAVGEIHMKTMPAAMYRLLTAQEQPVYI

[9] = molecular target: Lysine-specific demethylase 4C (Homo sapiens, UniProt Q9H3R0); assay: inhibition of JMJD2C H3K9me3 demethylation – biochemical, DELFIA europium, cherry-picked samples, dose response (AID 488835); type: functional
Chain of Lysine-specific demethylase 4C (Q9H3R0 whole entry): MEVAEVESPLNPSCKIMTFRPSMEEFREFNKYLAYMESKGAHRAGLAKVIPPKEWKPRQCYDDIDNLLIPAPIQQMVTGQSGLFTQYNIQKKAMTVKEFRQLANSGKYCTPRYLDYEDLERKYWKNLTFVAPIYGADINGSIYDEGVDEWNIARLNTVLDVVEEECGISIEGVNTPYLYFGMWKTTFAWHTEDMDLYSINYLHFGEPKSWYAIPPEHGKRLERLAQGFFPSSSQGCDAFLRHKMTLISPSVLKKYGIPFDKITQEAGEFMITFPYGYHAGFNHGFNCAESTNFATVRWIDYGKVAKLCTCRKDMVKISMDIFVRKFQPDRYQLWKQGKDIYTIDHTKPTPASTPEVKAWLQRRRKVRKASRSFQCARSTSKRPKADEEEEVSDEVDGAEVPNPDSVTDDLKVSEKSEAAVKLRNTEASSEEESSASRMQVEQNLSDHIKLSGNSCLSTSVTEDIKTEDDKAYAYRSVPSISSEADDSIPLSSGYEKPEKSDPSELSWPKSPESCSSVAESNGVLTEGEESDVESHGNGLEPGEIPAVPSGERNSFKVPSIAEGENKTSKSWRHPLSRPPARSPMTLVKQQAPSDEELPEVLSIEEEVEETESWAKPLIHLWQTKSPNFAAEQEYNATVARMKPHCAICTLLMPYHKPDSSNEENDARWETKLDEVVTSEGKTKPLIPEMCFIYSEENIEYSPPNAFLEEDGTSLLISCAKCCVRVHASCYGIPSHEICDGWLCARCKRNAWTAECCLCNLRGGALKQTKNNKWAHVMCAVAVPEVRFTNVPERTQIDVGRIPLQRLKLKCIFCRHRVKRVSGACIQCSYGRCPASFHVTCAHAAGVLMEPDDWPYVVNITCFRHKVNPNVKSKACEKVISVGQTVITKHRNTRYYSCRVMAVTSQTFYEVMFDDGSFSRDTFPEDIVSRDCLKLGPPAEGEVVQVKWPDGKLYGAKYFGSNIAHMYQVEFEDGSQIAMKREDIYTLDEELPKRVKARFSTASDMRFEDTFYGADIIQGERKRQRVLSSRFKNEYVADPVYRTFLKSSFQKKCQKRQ

[10] = molecular target: T6, Voltage-gated N-type calcium channel alpha-1B subunit/Amyloid beta A4 precursor protein-binding family A member 1; assay: disruptors of Mint-PDZ/N-type channel peptide interaction – biochemical, HTRF, set 2, SAR follow-up (AID 434980); type: functional
[11] = molecular target: T6, Voltage-gated N-type calcium channel alpha-1B subunit/Amyloid beta A4 precursor protein-binding family A member 1; type: protein assay
[12] = molecular target: NS3 (Hepatitis C virus, UniProt A3EZJ3); assay: PubChem AID 2173; parameters: species or system Hepacivirus hominis
[13] = molecular target: T6, Voltage-gated N-type calcium channel alpha-1B subunit/Amyloid beta A4 precursor protein-binding family A member 1; type: protein assay; remark: listed apart in the source
[14] = molecular target: T7, Lysine-specific demethylase 4A (Homo sapiens, UniProt O75164); assay: inhibition of JMJD2A H3K9me3 demethylation – biochemical, DELFIA europium, cherry-picked samples, selectivity assay for GASC-1 inhibitor project, dose response (AID 488840)
T7 sequence (O75164 whole entry): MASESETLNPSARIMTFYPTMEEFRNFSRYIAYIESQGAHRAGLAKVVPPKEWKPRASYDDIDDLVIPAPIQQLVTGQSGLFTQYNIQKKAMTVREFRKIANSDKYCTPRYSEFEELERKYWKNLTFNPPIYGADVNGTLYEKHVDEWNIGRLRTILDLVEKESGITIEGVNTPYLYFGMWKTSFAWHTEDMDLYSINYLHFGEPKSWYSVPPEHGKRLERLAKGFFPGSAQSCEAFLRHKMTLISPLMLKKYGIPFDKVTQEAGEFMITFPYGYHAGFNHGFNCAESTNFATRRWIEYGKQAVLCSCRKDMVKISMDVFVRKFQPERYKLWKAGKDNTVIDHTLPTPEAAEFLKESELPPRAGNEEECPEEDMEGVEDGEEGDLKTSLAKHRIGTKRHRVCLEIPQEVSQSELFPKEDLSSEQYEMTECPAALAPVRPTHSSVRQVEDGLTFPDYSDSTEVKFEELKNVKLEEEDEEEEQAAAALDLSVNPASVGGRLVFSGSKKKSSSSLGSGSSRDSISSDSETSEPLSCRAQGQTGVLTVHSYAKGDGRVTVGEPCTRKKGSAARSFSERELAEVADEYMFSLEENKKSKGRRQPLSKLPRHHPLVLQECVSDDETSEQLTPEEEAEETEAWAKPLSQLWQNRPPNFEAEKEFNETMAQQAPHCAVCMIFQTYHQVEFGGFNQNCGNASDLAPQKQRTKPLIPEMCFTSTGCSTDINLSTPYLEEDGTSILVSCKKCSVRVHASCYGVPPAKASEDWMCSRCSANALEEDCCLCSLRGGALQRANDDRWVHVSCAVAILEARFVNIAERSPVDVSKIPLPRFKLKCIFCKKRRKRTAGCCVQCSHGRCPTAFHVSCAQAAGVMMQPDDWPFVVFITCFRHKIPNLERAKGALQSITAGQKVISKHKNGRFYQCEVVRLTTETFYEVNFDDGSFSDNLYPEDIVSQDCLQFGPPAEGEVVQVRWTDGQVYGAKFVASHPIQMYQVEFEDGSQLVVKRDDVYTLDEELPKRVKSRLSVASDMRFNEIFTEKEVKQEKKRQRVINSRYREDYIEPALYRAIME

[15] = molecular target: Troponin, cardiac muscle (Homo sapiens, UniProt P19429+P45379+P63316); assay: compounds desensitizing RTF to calcium – biochemical, fluorescence, cardiac regulated thin filaments, triplicate IC50, dose response (AID 504742); type: protein-complex assay
[16] = molecular target: Induced myeloid leukemia cell differentiation protein Mcl-1 (Homo sapiens, UniProt Q07820); type: functional
Chain of Induced myeloid leukemia cell differentiation protein Mcl-1 (Q07820 whole entry): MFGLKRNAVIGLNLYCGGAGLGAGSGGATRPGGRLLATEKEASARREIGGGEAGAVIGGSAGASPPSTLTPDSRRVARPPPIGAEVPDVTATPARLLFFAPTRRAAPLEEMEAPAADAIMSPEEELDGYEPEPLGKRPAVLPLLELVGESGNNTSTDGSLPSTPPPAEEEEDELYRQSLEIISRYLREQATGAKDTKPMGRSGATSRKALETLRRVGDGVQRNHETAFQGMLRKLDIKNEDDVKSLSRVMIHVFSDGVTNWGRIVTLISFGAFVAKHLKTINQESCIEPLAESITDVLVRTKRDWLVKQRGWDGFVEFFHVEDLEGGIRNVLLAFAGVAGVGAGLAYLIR

[17] = molecular target: T8, Dual specificity protein phosphatase 3 (Homo sapiens, UniProt P51452); assay: VHR1 phosphatase inhibitors, primary screen, biochemical, absorbance, uHTS (AID 1654)
T8 sequence (P51452 whole entry): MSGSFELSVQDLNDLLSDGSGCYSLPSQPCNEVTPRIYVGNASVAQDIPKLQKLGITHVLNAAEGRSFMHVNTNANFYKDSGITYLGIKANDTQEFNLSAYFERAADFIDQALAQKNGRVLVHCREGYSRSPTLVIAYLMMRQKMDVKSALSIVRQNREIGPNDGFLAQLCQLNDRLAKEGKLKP

[18] = molecular target: T9, Dual specificity protein phosphatase 6 (Rattus norvegicus, UniProt Q64346); assay: inhibition of rat DUSP6 enzyme activity – biochemical, in vitro, primary screen (AID 425)
T9 sequence (Q64346 whole entry): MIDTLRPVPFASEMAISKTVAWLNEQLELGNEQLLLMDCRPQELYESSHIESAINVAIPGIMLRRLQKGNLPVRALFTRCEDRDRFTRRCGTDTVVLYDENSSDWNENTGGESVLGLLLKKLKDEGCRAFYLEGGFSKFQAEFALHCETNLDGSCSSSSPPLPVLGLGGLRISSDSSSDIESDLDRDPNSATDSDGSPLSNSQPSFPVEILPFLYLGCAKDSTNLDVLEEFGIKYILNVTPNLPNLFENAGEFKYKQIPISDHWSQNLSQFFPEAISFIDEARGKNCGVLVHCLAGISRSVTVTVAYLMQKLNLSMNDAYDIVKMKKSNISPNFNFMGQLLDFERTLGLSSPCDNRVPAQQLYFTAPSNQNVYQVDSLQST

[19] = molecular target: T8, Dual specificity protein phosphatase 3; assay: VHR1 phosphatase inhibitors, biochemical (AID 1878)
[20] = molecular target: DNA (cytosine-5)-methyltransferase 1 (Homo sapiens, UniProt P26358); assay: inhibition of DNA methylation by DNMT1 – biochemical, fluorescent molecular beacon, confirmation (AID 602386); type: functional

COc1ccc(S(=O)(=O)Nc2ccc(O)c(Sc3nnc[nH]3)c2)cc1
EC50 [1]: 62.8 µM (active) | EC50 [2]: 10.4 µM (active) | EC50 [3]: 63.4 µM (active) | EC50 [4]: 8.48 µM (active) | IC50 [5]: 25 µM (active) | EC50 [6]: 79.6 µM (active)

Nc1c(C(=O)NC2CC2)sc2nc3c(c(-c4ccco4)c12)CC/C3=C/c1ccco1
IC50 [7]: 54 µM (active) | IC50 [8]: 17.2 µM (active) | AC50 [9]: 4.71 µM (active) | IC50 [10]: 1.04 µM (active) | IC50 [11]: 13.1 µM (active) | IC50 [12]: 5.48 µM (active) | IC50 [13]: 3.99 µM (active) | AC50 [14]: 6.07 µM (active) | IC50 [15]: > 71.5 µM (inactive)

Cc1ccc(NC(=O)CN2C(=O)S/C(=C\c3cccn3-c3cccc(C(=O)O)c3)C2=O)c(C)c1
IC50 [16]: > 54 µM (active) | IC50 [17]: 3.25 µM (active) | EC50 [2]: > 300 µM (not active) | IC50 [18]: 7.9 µM (active) | EC50 [4]: > 300 µM (not active) | IC50 [19]: 1.89 µM (active) | IC50 [20]: 9.17 µM (active)
